Experimental data published in patent publication US3968102A, “S-substituted-2-thioadenosines” (Kohjin Co., Ltd., priority 1974, dated 1976).
Like-named read-outs stand apart in the source and are kept apart here.

Key:
[1] = test system: rabbit platelet-rich plasma (collagen-induced platelet aggregation); assay: Inhibition of collagen-induced platelet aggregation in rabbit platelet-rich plasma; format: cell-based; details: 3 minute incubation; for inhibition at 10 µM / inhibition at 100 µM: Oryctolagus cuniculus, Platelet, 0.05 h; for inhibition at 10 µM: compound 10^-5 M
[2] = test system: rabbit platelet-rich plasma (ADP-induced platelet aggregation); assay: Inhibition of 10^-5 M ADP-induced platelet aggregation in rabbit platelet-rich plasma; format: cell-based; details: for inhibition at 10 µM / inhibition at 100 µM: Oryctolagus cuniculus, Platelet, 0.05 h; for inhibition at 10 µM: compound 10^-5 M; for inhibition at 100 µM: read-out: Inhibition (%) 10^-5 M ADP-Induced Aggregation
[3] = test system: platelet aggregation; details: cited from earlier work
[4] = pKa; format: physicochemical
[5] = test system: platelet-rich plasma (platelet aggregation); assay: Persistence of platelet aggregation inhibitory activity on incubation with platelet-rich plasma; format: cell-based, rabbit
Experimental: The platelet aggregation inhibitory activity of representative compounds of the formula (I) were determined in terms of the percent inhibitory activity against 10-^5 M adenosine-5'-diphosphate (hereinafter referred to as "ADP")-induced or collagen-induced platelet aggregation in rabbit platelet-rich plasma according to the procedure described by G. V. R. Born and M. J. Cross in Journal of Physiology, Vol. 168, p. 178 (1963). […]

[6] = solvent DMSO, 3 minute incubation
[7] = compound 10^-4 M, solvent DMSO, 3 minute incubation
[8] = compound 10^-4 M, solvent PSS, 3 minute incubation
[9] = J. Med. Chem., Vol. 16, No. 12, 1381-1388 (1973)

| SMILES | inhibition at 100 µM ([1]; compound 10^-4 M, solvent DMSO) | inhibition at 100 µM [2, 7] | inhibition at 100 µM ([1]; compound 10^-4 M, solvent PSS) | inhibition at 100 µM [2, 8] | also measured |
| --- | --- | --- | --- | --- | --- |
| Cc1ccccc1Sc1nc(N)c2ncn([C@@H]3O[C@H](CO)[C@@H](O)[C@H]3O)c2n1 [2-(o-Tolyl)thioadenosine] |  |  |  |  | inhibition at 10 µM ([1]; solvent DMSO): 57%; inhibition at 10 µM [2, 6]: 61% |
| Nc1nc(Sc2ccc([N+](=O)[O-])cc2)nc2c1ncn2[C@@H]1O[C@H](CO)[C@@H](O)[C@H]1O [2-(p-Nitrophenyl)thioadenosine] | 81% | 92% |  |  |  |
| Nc1nc(SC2C3CC4CC(C3)CC2C4)nc2c1ncn2[C@@H]1O[C@H](CO)[C@@H](O)[C@H]1O (stereo partly drawn) [2-(β-Adamantyl)thioadenosine] | 72% | 95% |  |  | inhibition at 10 µM ([1]; solvent DMSO): 61%; inhibition at 10 µM [2, 6]: 72% |
| Nc1nc(SCCO)nc2c1ncn2[C@@H]1O[C@H](CO)[C@@H](O)[C@H]1O [2-(β-Hydroxyethyl)thioadenosine] |  |  | 30% | 52% |  |
| Nc1nc(SC2CC3CCC2C3)nc2c1ncn2[C@@H]1O[C@H](CO)[C@@H](O)[C@H]1O (stereo partly drawn) [2-(β-Norbornyl)thioadenosine] | 69% | 89% |  |  | inhibition at 10 µM ([1]; solvent DMSO): 51%; inhibition at 10 µM [2, 6]: 62% |
| Nc1nc(Sc2cccnc2)nc2c1ncn2[C@@H]1O[C@H](CO)[C@@H](O)[C@H]1O [2-(β-Pyridyl)thioadenosine] |  |  |  |  | Inhibition (%) Collagen-Induced Aggregation ([1]; compound 10^-4 M, solvent PSS): 52%; Inhibition (%) 10^-5 M ADP-Induced Aggregation [2, 8]: 61% |
| Nc1nc(SCCCO)nc2c1ncn2[C@@H]1O[C@H](CO)[C@@H](O)[C@H]1O [2-(γ-Hydroxypropyl)thioadenosine] |  |  | 52% | 58% |  |
| CSc1nc(N)c2ncn([C@@H]3O[C@H](CO)[C@@H](O)[C@H]3O)c2n1 [2-Methylthioadenosine, reference compound] |  |  | 25% | 12% |  |
| Nc1nc(Sc2ccccc2)nc2c1ncn2[C@@H]1O[C@H](CO)[C@@H](O)[C@H]1O [2-Phenylthioadenosine] | 82% | 98% |  |  | inhibition at 10 µM ([1]; solvent DMSO): 58%; inhibition at 10 µM [2, 6]: 62% |
| CCCSc1nc(N)c2ncn([C@@H]3O[C@H](CO)[C@@H](O)[C@H]3O)c2n1 [2-Propylthioadenosine, reference compound] |  |  |  | 16% |  |
| Nc1nc(S)nc2c1ncn2[C@@H]1O[C@H](CO)[C@@H](O)[C@H]1O [2-Thioadenosine] |  |  | 36% | 10% | inhibitory activity in ADP-induced platelet aggregation [3, 9]: only a weak inhibitory activity; inhibitory activity in collagen-induced platelet aggregation [3, 9]: only a weak inhibitory activity; pKa [4]: 7.8 |
| CSc1nc(N)c2ncn([C@@H]3O[C@H](COP(=O)(O)O)[C@@H](O)[C@H]3O)c2n1 [2-methylthioadenosine-5'-monophosphate] |  |  |  |  | platelet aggregation inhibitory activity (prior art) ([3]; in words): only a weak platelet aggregation inhibitory activity |
| Nc1ncnc2c1ncn2[C@@H]1O[C@H](CO)[C@@H](O)[C@H]1O [Adenosine] | 68% | 76% | 71% | 80% | inhibition at 10 µM ([1]; solvent PSS): 51%; inhibitory activity after 60 minutes of incubation with the platelet-rich plasma ([5]; 60 minutes of incubation): disappears completely after 60 minutes of incubation; inhibitory activity (control) ([5]; in words, from Table 1): fairly potent inhibitory activity; inhibition at 10 µM ([2]; solvent PSS, 3 minute incubation): 58% |
| CSc1nc(N)c2ncn([C@@H]3O[C@H](COP(=O)(O)O)[C@@H](O)[C@H]3O)c2n1 [Ammonium 2-Methylthioadenosine-5'-monophosphate, reference compound] |  |  |  |  | inhibition at 100 µM [2]: 35% |
| Nc1ncnc2c1ncn2[C@@H]1O[C@H](COP(=O)(O)O)[C@@H](O)[C@H]1O [Ammonium Adenosine-5'-monophosphate, reference compound] |  |  |  | 5% |  |
